Measured values reported in US20030104079A1, “Skin tissue regeneration promoters comprising ginsenoside Rb1” (Japan Science and Technology Corporation, Japan, priority 2000, published 2003).

Assays:
[1] = system: morsus of human oral mucosa; assay: Therapy of morsus of human oral mucosa by external application; format: in vivo; settings: propet containing 0.00001% by weight
Description: Next, one of the present inventors had confirmed by themself whether or not propet containing low concentration of ginsenoside Rb1 was effective to morsus of mouth or oral mucosa. On May 2nd, 2000, at about 2:00 p.m. after dental treatment, […] had started to have late lunch before waking up from infiltration anesthesia of the left third branch of the trigeminal nerve and periodontal anesthesia due to heavy hunger. They had bitten themself three times their own left lip mucosa and since they felt iron taste (blood) in their oral cavity, as a result of confirmation of their morsus by a mirror, they found at least five regions of erosion or defect of mouth or oral mucosa, further hematocele or hematoma was found at one spot. Since they concluded that if it (i.e. morsus of oral mucosa) was allowed to leave as it is, aphthous stomatitis would be complicated within several days to require a week to ten days for complete cure, propet containing a low concentration (0.00001% by weight) of ginsenoside Rb1, which had been confirmed to show effectiveness and efficacy by animal experiments of the present inventors, was applied with small amount to the five regions with erosion or defect of oral mucosa and one hematocele or hematoma region. External or topical application was performed before and after meal and before and after eating between meals. The external or topical application was performed after tooth brushing was performed as much as possible after the meal. Namely, propet containing 0.00001% by weight of ginsenoside Rb1 was applied externally or topically onto morsus regions of the labial mucosa separately 6-10 times a day. FIG. 7 is a photograph in place of drawing.
Next, one of inventors of the present invention (Sakanaka) had bitten again left lower labial mucosa on May 26, 2000 during lunch, and propet containing 0.00001% by weight of ginsenoside Rb1 was applied topically or externally onto the morsus region. A photograph just after morsus is shown in left of FIG. 8, and a photograph at 72 hours after morsus is shown in right of FIG. 8.
Next, one of the present inventors had confirmed by themself whether propet containing low concentrations of ginsenoside Rb1 was effective for morsus of mouth mucosa or not. On May 2nd, 2000, at about 2:00 p.m. after dental treatment, […] had started to have late lunch before awakening from infiltration anesthesia of the left third division of the trigeminal nerve and periodontal anesthesia due to heavy hunger. They had bitten themself three times their own left lip mucosa and they felt iron taste (blood) in their oral cavity. As a result of confirmation of their morsus by a mirror, they found at least five regions of erosion or defect of mouth mucosa, further hematoma was found at one spot. Since they concluded that if the morsus was allowed to leave as it was, aphthous stomatitis would be developed as a complication to require a week to ten days for complete cure, a small amount of propet containing a low concentration (0.00001% by weight) of ginsenoside Rb1, which had been confirmed to show effectiveness and efficacy by animal experiments of the present inventors, was topically or externally applied to the five regions with erosion or defect of oral mucosa and to one hematoma region. External or topical application was performed before and after meal and before and after eating between meals. […]

[2] = Observation of administered animals for side effects; format: in vivo, rats; settings: present experiments, animals carefully observed
Description: The amount of administration of ginsenoside Rb1, which is used as the preparation(s) for external or topical application to skin or the preparation(s) for external or topical application to mucosa, is far smaller than the amount of intravenous administration.
Actually, as indicated in PCT/JP00/04102 (Brain cell or nerve cell protecting agents comprising ginseng), as far as directing treatment or therapy of cerebral infarction by continuous intravenous administration in a dose of […] (weighing 300 g), dihydroginsenoside Rb1 is thought to be a quite safe pharmaceutical composition. The amount of administration of ginsenoside Rb1, which is used as the preparation(s) for external or topical application to skin or the preparation(s) for external or topical application to mucosa, is far smaller than the amount of intravenous administration.

[3] = system: skin epidermal keratinocytes or hornified cells; settings: extracellular fluid concentration 100 μg/ml; cited from earlier work
[4] = system: cultured nerve cells (neurons); settings: same SNP culture system, Japanese Patent Appln. No. Hei 10-365560; cited from earlier work
[5] = intraperitoneally administered; Kaku et al. 1975; cited from earlier work

Question: With `CC(C)=CCC[C@](C)(O[C@@H]1O[C@H](CO[C@@H]2O[C@H](CO)[C@@H](O)[C@H](O)[C@H]2O)[C@@H](O)[C@H](O)[C@H]1O)[C@H]1CC[C@]2(C)[C@@H]1[C@H](O)C[C@@H]1[C@@]3(C)CC[C@H](O[C@@H]4O[C@H](CO)[C@@H](O)[C@H](O)[C@H]4O[C@@H]4O[C@H](CO)[C@@H](O)[C@H](O)[C@H]4O)C(C)(C)[C@@H]3CC[C@]12C` [ginsenoside Rb1] as the compound, how does the “pain in the wounded regions” value [1] read?
Answer: markedly reduced

Question: And the “epithelization of morsus regions of labial mucosa (FIG. 7)” value ([1]; 6-10 times a day, 96 hours after morsus, one person)?
Answer: almost complete epithelization

Question: And the “complication of aphthous stomatitis after morsus” value ([1]; first case)?
Answer: no complication of aphthous stomatitis was observed

Question: And the “cure of morsus (FIG. 8)” value ([1]; second case, 72 hours after morsus)?
Answer: rapidly cured without developing aphthous stomatitis as a complication

Question: What about the “time in which morsus (wound) healing is markedly promoted” value ([1]; such morsus usually requires at least 7 to 10 days) of the same compound?
Answer: ≤ 96 h

Question: And the “side effect in administered animals” value [2]?
Answer: no side effect or ill effect was noted

Question: What about the “division and proliferation of skin epidermal keratinocytes or hornified cells” value [3] of the same compound?
Answer: can promote division and proliferation of skin epidermal keratinocytes or hornified cells

Question: What about the “extracellular fluid concentration that inhibits apoptosis or apoptosis-like cell death of nerve cells” value [4] of the same compound?
Answer: ≤ 1 ng/mL

Question: And the LD50 [5]?
Answer: 1110 mg/kg
